Experiment [1] deals with isolated perfused rat pancreas. The experiment in a line: IRI (insulin) release from the isolated perfused rat pancreas. From the text:
Such a use should be especially safe as no hypoglycaemia will occur during treatment because of the lack of IRI releasing effect in the presence of hypoglycaemia and normoglycaemia.
Furthermore, it is stated therein that compounds of formula I show no or minor, negligible metabolic effects. […] Based thereupon it is surprising that compounds of formula I have an insulin releasing effect on animals primed with glucose corresponding to hyperglycaemia.

The subject of the next experiment is rat free fat cells. The experiment in a line: Lipolytic effect on rat free fat cells in vitro. As to conditions: compared with glucagon. Type of experiment: cell-based.
Another experiment deals with rats. Description: Metabolic effects after administration to normally fasted and fed rats in vivo.
The test system of experiment [2] is isolated perfused rat pancreas. As to conditions: known effect of glucagon; cited from earlier work.
The test system of the next experiment is Normoglycaemic Rats. Description: Experiment D: effect on plasma glucose and plasma IRI levels in normoglycaemic rats. The format is in vivo, Wistar rats. As to conditions: normally fed rats; for Blood glucose / Plasma IRI: i.v. injection at 0 min, equimolar doses (glucagon 1 mg/kg, glucagon(1-21) 0.77 mg/kg), mean, N = 10. The method, then:
Glucagon (-1 mg/kg) and an equimolar dosis of glucagon(1-21), i.e. 0.77 mg/kg, were injected intravenously at the beginning time (time: 0 minutes) to normally fed male Wistar rats weighing 150 g (+/- 5 g). Blood samples were taken from the orbital plexus at the times -5, 2, 5, 10, 15, 30, and 60 minutes. Blood glucose was assayed according to the hexokinase method and plasma insulin was assayed by RIA. […] Contrary to glucagon, glucagon(1-21) had no effect on these parameters. Mean blood glucose values (N = 10) are stated in Table VI below, and mean plasma IRI values (N = 10) are stated in Table VII below.

[3] abbreviates: buffer glucose concentration 2.0 mg/ml.
Where [4] appears, read: i.v., glucagon 1 mg/kg, glucagon(1-21) 0.77 mg/kg.

On to “des-pentapeptide-(22-26)-glucagon [des(22-26)glucagon]”, for which the insulin releasing effect result is reported as “have this effect” in experiment [1] (at hyperglycaemia) and “possesses an insulin releasing effect” in experiment [1] (setting [3]). Besides, the lipolytic effect result in the experiment on rat free fat cells is reported as “negligible”. Besides, in the experiment on rats, the metabolic effects entry was “No metabolic effects have been found”.

As to Glucagon [reference compound], the insulin releasing effect result in experiment [1] (at hyperglycaemia) is given as “have this effect”; in experiment [1] (in the presence of normoglycaemia and hypoglycaemia), “has an insulin releasing effect”. Besides, the insulin release entry in experiment [2] is reported as “releases insulin”. The Blood glucose in the experiment with Normoglycaemic Rats (time 2 min) worked out at 1.2 mg/mL; in the experiment with Normoglycaemic Rats (time 5 min), 1.3 mg/mL; in the experiment on Normoglycaemic Rats (time 10 min), 1.3 mg/mL; with Normoglycaemic Rats (time 15 min), 1.4 mg/mL; in the experiment on Normoglycaemic Rats (time 30 min), 1.5 mg/mL; in the experiment with Normoglycaemic Rats (time 60 min) it was 1.1 mg/mL. The substance also gave a Blood glucose in the experiment on Normoglycaemic Rats (time -5 min) of 0.9 mg/mL. The “Plasma IRI” value was determined as 95 µU/ml in the experiment with Normoglycaemic Rats (time 2 min); 98 µU/ml with Normoglycaemic Rats (time 5 min); 82 µU/ml in the experiment on Normoglycaemic Rats (time 10 min); 67 µU/ml with Normoglycaemic Rats (time 15 min); 53 µU/ml in the experiment with Normoglycaemic Rats (time 30 min); 17 µU/ml in the experiment on Normoglycaemic Rats (time 60 min). The “Plasma IRI” value in the experiment on Normoglycaemic Rats (time -5 min) was 19 µU/ml. In the experiment with Normoglycaemic Rats (setting [4]), the “effect on blood glucose” value is “significantly increasing effect”. The “effect on plasma IRI” value in the experiment on Normoglycaemic Rats (setting [4]) is recorded as “significantly increasing effect”.

For “glucagon(1-26) (HSQGTFTSDYSKYLDSRRAQDFVQWL; Glucagon; UniProt P01275 53-78, looked up, fragment)”, the figures for the insulin releasing effect result in experiment [1] (at hyperglycaemia) and in experiment [1] (setting [3]) were “have this effect” and “possesses an insulin releasing effect”, respectively. Moreover, in the experiment with rat free fat cells, the lipolytic effect result is on record as “negligible”. In addition, the metabolic effects entry in the experiment with rats is “No metabolic effects have been found”.

Source of the values: patent EP0082731A1, “The use of peptides as medicaments” (NOVO INDUSTRI A/S, priority 1981, dated 1983).
